From patent US3941842A, “P,P'-Disubstituted α-trichloromethylbenzylanilines” (priority 1972, dated 1976)

Key:
Culex fatigans larvae = assay: LC50 to Culex fatigans larvae; type: in vivo, Culex pipiens quinquefasciatus Say
Description: (§1) World Health Org. 363 (1971). […] Food Chem. 1145 (1970). […] Sci. Tech. 709 (1971). The results are detailed in Table II. ##SPC1##

[1] = system: Musca domestica (SNAIDM and RSP strains), Phormia regina, Culex fatigans and Anopheles albimanus; assay: Insecticidal activity over the test insects (Table II, summarised in words); type: in vivo; details: overall, test insects of Table II
Protocol: (§2) The compounds of the present invention were tested for insecticidal activity by standard methods, and compared with the insecticidal activities of DDT and symmetrical analogs of DDT, such methoxychlor. Toxicological methods for the determination of the topical LD50 values to adult female SNAIDM and RSP houseflies, Musca domestica L. and to Phormia regina, and LC50 values to Culex pipiens quinquefasciatus Say, and Anopheles albimanus Weid mosquitoes were described by Metcalf el al., 44 Bull. World Health Org. 363 (1971). The methods for evaluation of metabolism by mouse liver homogenate and by female RSP housefly and salt-marsh caterpillar larvae Estigmene acrea Drury, were described by Kapoor et al., 18 J. Agr. Food Chem. 1145 (1970). The techniques for model eocsystem evluation were described by Metcalf et al., 5 J. Environ. Sci. Tech. 709 (1971).
(§3) Since piperonyl butoxide serves to block the action of MFO, the synergized LD50 values express the intrinsic toxicity of the compounds. With the detoxifying action of MFO enzymes blocked, the intrinsic toxicity of the compounds can thus be measured.

[2] = system: Anopheles albimanus larvae; assay: LC50 to Anopheles albimanus larvae; type: in vivo, Anopheles albimanus Weid
Description: as §1

Musca domestica Snaidm = assay: Topical LD50 to adult female SNAIDM houseflies; details: for LD50: Musca domestica, read-out: Topical LD50, Musca domestica Snaidm, Alone; for LD50 / Topical LD50, Musca domestica Snaidm, with pb: topical; for Topical LD50, Musca domestica Snaidm, with pb: SNAIDM strain, synergized with piperonyl butoxide; for SR, Musca domestica Snaidm: synergistic ratio: LD50 alone/LD50 synergized with piperonyl butoxide
Protocol: as §2, §3

Phormia regina = assay: whole plant or invertebrate; details: topical; for LD50: Phormia regina, read-out: Topical LD50, Phormia regina, Alone; for Topical LD50, Phormia regina, with pb: synergized with piperonyl butoxide
Protocol: as §2, with “363 (1971).” left out, “Food Chem. 1145 (1970).” left out, “Tech.” for “Tech. 709 (1971).”
as §3

Musca domestica Rsp = assay: Topical LD50 to adult female RSP houseflies; details: for LD50: Musca domestica, read-out: Topical LD50, Musca domestica Rsp, Alone; for LD50 / Topical LD50, Musca domestica Rsp, with pb: topical; for Topical LD50, Musca domestica Rsp, with pb: RSP strain, synergized with piperonyl butoxide; for SR, Musca domestica Rsp: synergistic ratio: LD50 alone/LD50 synergized with piperonyl butoxide
Protocol: as §2, §3

SMILES	LC50 Culex fatigans larvae (Culex fatigans larvae)	insecticidal effectiveness / toxicity (in words) [1]	LC50 Anopheles albimanus larvae [2]	LD50 (Musca domestica Snaidm)	Topical LD50, Musca domestica Snaidm, with pb (Musca domestica Snaidm)	SR, Musca domestica Snaidm (Musca domestica Snaidm)	LD50 (Phormia regina)	Topical LD50, Phormia regina, with pb (Phormia regina)	LD50 (Musca domestica Rsp)	Topical LD50, Musca domestica Rsp, with pb (Musca domestica Rsp)	SR, Musca domestica Rsp (Musca domestica Rsp)
COc1ccc(C(Nc2ccc(C)c(C)c2)C(Cl)(Cl)Cl)cc1 (centres unmarked) [XXIII]	0.30 ppm	Toxicity was also substantially decreased	0.18 ppm	85 mg/kg	6.5 μg per g	13.0	77.5 mg/kg	15.5 μg per g	100 mg/kg	28.0 μg per g	3.6
CCOc1ccc(C(Nc2ccccc2OCC)C(Cl)(Cl)Cl)c(OCC)c1 (centres unmarked) [XXII]	> 1.0 ppm	Toxicity was also substantially decreased	> 1.0 ppm	> 500 mg/kg	500 μg per g		> 250 mg/kg	> 250 μg per g	> 500 mg/kg	500 μg per g	
COc1ccc(C(Nc2ccc(C)cc2C)C(Cl)(Cl)Cl)cc1 (centres unmarked) [XXIV]	0.28 ppm	Toxicity was also substantially decreased	0.080 ppm	95 mg/kg	14.0 μg per g	6.8	97.5 mg/kg	25.0 μg per g	140 mg/kg	29.0 μg per g	4.8
CCOc1ccc(C(Nc2ccccc2OCC)C(Cl)(Cl)Cl)cc1 (centres unmarked) [XXI]	> 1.0 ppm	Toxicity was greatly decreased	> 1.0 ppm	> 500 mg/kg	110 μg per g	> 5	> 250 mg/kg	> 250 μg per g	> 500 mg/kg	140 μg per g	> 3.5
COc1ccc(C(Nc2ccc(C3CCCCC3)cc2)C(Cl)(Cl)Cl)cc1 (centres unmarked) [XXVII]	1.0 ppm	Toxicity was also substantially decreased	> 1.0 ppm	> 500 mg/kg	48 μg per g	> 10	> 250 mg/kg	112.5 μg per g	> 500 mg/kg	165 μg per g	> 3
CN(C)c1ccc(C(Nc2ccc([N+](=O)[O-])cc2)C(Cl)(Cl)Cl)cc1 (centres unmarked) [XXVI]	0.38 ppm	Toxicity was also substantially decreased	> 1.0 ppm	> 500 mg/kg	120 μg per g	> 4	> 250 mg/kg	> 250 μg per g	> 500 mg/kg	500 μg per g	
COc1ccc(NC(c2ccc(N(C)C)cc2)C(Cl)(Cl)Cl)cc1 (centres unmarked) [XXV]	0.70 ppm	Toxicity was also substantially decreased	1.0 ppm	310 mg/kg	16.0 μg per g	19.4	> 250 mg/kg	85.0 μg per g	> 500 mg/kg	13.5 μg per g	> 37
CCOc1ccc(NC(c2ccccc2OCC)C(Cl)(Cl)Cl)cc1 (centres unmarked) [XX]	> 1.0 ppm	Toxicity was greatly decreased	> 1.0 ppm	> 500 mg/kg	500 μg per g		> 250 mg/kg	> 250 μg per g	> 500 mg/kg	> 500 μg per g	
